Test results published in PMC9133036 (Nature Communications, 2022).
Where a chain is given by its changes, count along the chain named. Several values for one entry are separate records, joined by “and”; a condition that tells them apart may be missing. Identical values can stand only once. Entries after “also recorded” stand apart in the source; their conditions may differ.

Assays:
Assay type in all cases: cell-based
OX2R N324A = molecular target: T1, OX2R N324A (Homo sapiens, UniProt O43614, N324A); test: IP accumulation assay, OX2R N324A;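 as to % IP accumulation: 100% equals the maximal response of wild-type OX2R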
T1 construct: FLAG; expressed in transfected cells; host or cells: HEK293
T1 sequence (O43614 1-444 N324A): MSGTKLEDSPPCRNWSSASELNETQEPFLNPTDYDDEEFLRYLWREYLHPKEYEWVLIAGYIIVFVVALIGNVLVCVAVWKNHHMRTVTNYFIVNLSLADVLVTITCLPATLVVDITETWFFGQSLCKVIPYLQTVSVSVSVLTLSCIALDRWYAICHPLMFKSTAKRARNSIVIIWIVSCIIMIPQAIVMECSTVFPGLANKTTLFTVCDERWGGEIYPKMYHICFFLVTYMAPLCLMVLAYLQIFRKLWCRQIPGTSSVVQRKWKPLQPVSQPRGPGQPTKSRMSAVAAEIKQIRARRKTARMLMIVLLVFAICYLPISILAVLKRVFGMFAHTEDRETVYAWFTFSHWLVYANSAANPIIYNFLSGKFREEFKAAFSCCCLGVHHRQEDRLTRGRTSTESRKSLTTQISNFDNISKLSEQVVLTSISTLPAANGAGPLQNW
Source text: (§1) The IP assay was adapted from a prior precedent. HEK293 cells were maintained in DMEM-high glucose (Millipore Sigma) supplemented with 5% fetal bovine serum (Corning) and penicillin-streptomycin (Millipore Sigma). Receptor constructs used were the full-length wild-type (or mutant) human OX1R and OX2R sequences cloned into pCDNA3. To enhance the Emax in the IP assay, a plasmid encoding full-length human Gαq subunit[66] was co-transfected into HEK293 cells with plasmids encoding orexin receptor constructs using Lipofectamine 3000 (Thermo Fisher). 24 h after transfection, the cells were plated on poly-D-lysine coated (Millipore Sigma) tissue culture-treated 96 well white plates with clear bottoms (Perkin Elmer) at 30,000 cells per well in Inositol-free DMEM (MP Biomedicals) supplemented with 5% fetal bovine serum, 4 mM L-glutamine (Millipore Sigma), penicillin-streptomycin, and about 5 uCi (5 ul) per ml myo-[2-3H] inositol (Perkin Elmer). The following day, the media was replaced with agonists that were diluted in HBSS (Millipore Sigma) containing 10 mM lithium chloride (Millipore Sigma) and incubated at 37 °C for 45 min. Then agonists were removed and cells were lysed on ice for 30 min with 10 mM formic acid (Millipore Sigma). 1.25 mg of poly-lysine coated YSI SPA beads (Perkin Elmer) was added to each well. The plates were mixed on an orbital shaker for 30 min. The plates were read on a MicroBeta scintillation counter (Perkin Elmer) the following day. IP accumulation assays on different constructs were performed in n ≥ 3 independent experiments (each done in duplicate), where n is shown in Supplementary Table 2.

OX2R Y354A = molecular target: T2, OX2R Y354A (Homo sapiens, UniProt O43614, Y354A); test: β-arrestin PathHunter assay, OX2R Y354A; settings: for beta-arrestin recruitment fold change: Y354A, listed as OxB
T2 construct: expressed in transfected cells; host or cells: CHO-K1 cells stably expressing EA β-arrestin2 (DiscoveRX), transiently transfected with pCMV-ProLink OX2R
Experimental: β-Arrestin recruitment activity was measured by using the PathHunter system (DiscoveRX) according to the manufacturer’s instruction. Receptor constructs used were the full-length wild-type (or mutant) human OX2R sequences cloned into pCMV-ProLink (DiscoveRX). CHO-K1 cells stably expressing EA β-arrestin2 (DiscoveRX) were plated on 384 well white plates (Thermo Fisher) at 4000 cells/well in HamF12 (Wako Pure Chemical Industries) supplemented with 10% fetal bovine serum (Corning) and penicillin-streptomycin (Wako Pure Chemical Industries) and incubated overnight at 37 °C under 5% CO2. Cells were transfected with plasmids encoding wild type or each mutant ProLink-tagged human OX2R using FuGENE HD (Promega). […] Detection reagent was added and incubated for 1 h at room temperature. Luminescent signal was detected using an EnVision plate reader (PerkinElmer). β-arrestin assays on different constructs were performed in two or three independent experiments (each done in quadruplicate). Dose response curves (shown in Supplementary Fig. 8) were fitted to the three-parameter model ‘log(agonist) vs response’ in GraphPad Prism to determine pEC50 values.

human OX2R = molecular target: T3, human OX2R (Homo sapiens, UniProt O43614); test: Inhibition of forskolin-stimulated cAMP production (Gi signaling), OX2R + Gαi1; settings: for stimulation of Gi1 as reduction in cAMP levels after forskolin treatment: HEK293 cells transfected with OX2R and Gαi1; for % Forskolin stimulation: OX2R + Gi
T3 construct: expressed in transfected cells; host or cells: HEK293
T3 sequence (O43614 1-444): T1 sequence (O43614 1-444 N324A) with A324N
Experimental: To measure Gi signaling[67], HEK293 cells were transfected with pGloSensor™−22F cAMP Plasmid (Promega) and CMV expression plasmid encoding human OX2R. To enhance the signal for the cAMP assay, we co-transfected a Gi expression plasmid (CMV-driven) in which the full-length human Gαi1 subunit sequence was cloned into pcDNA3. The following day, cells were harvested and washed with assay buffer, HBSS with 20 mM HEPES pH 7.4 (Millipore Sigma). Cells were suspended in assay buffer containing 0.5 mg/ml Luciferin (Gold Biotechnology) and plated on 96 well tissue culture-treated white plates with opaque bottoms (Thermo Fisher). The cells were incubated at 37 °C for 90 min. Forskolin (Millipore Sigma) diluted in assay buffer was added to wells for a final concentration of 5 mM. Luminescence was read at room temperature repeatedly in a CLARIOstar microplate reader (BMG Labtech) until the signal stopped increasing. Agonist diluted in assay buffer was added from a 7X stock and again the plates were read repeatedly until the signal was stable.

human OX2R wild type = molecular target: T4, human OX2R wild type (Homo sapiens, UniProt O43614); test: Inositol phosphate accumulation assay for Gq signaling, OX2R WT; design: FLAG; expressed in transfected cells; host or cells: HEK293; settings: for Emax: normalized to OX2R WT Emax with the same ligand;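 as to % IP accumulation: 100% equals the maximal response of wild-type OX2R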
T4 sequence (O43614 1-444): T1 sequence (O43614 1-444 N324A) with A324N
Source text: as §1

[1] = OXB conc (log, M) -10.29, listed as OXB

T2 sequence (O43614 whole entry Y354A): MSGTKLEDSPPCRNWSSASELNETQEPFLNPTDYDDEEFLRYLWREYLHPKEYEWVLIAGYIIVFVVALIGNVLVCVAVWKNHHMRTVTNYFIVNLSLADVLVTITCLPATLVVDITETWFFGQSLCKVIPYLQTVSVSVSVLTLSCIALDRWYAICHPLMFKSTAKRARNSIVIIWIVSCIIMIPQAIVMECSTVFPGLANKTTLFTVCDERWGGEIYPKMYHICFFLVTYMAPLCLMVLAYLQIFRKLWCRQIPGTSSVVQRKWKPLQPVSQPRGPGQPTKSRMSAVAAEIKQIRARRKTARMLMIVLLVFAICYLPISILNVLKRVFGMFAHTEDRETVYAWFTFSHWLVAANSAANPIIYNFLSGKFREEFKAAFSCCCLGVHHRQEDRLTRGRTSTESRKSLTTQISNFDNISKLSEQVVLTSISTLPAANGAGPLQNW
T2 sequence (P32121 whole entry partner): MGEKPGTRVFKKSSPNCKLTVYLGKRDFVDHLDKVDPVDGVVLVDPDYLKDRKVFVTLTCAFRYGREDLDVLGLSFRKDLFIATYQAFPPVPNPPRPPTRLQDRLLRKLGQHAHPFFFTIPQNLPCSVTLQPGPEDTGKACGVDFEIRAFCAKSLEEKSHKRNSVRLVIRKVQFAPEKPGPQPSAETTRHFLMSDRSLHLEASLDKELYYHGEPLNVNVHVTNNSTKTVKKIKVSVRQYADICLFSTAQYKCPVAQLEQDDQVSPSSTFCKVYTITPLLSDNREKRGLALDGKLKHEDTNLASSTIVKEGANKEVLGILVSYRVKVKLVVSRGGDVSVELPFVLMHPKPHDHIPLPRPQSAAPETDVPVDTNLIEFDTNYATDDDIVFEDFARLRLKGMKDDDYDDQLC

COC(=O)N1CCC[C@H](NS(C)(=O)=O)[C@@H]1CO[C@H]1CC[C@@H](c2ccccc2)CC1 [TAK-925, methyl (2R,3S)−3-[(methylsulfonyl)amino]−2-{[(cis−4-phenylcyclohexyl)oxy]methyl}piperidine-1-carboxylate]
EC50 (OX2R N324A; IP accumulation): 18 nM | % IP accumulation (OX2R N324A; TAK-925 conc (log, M) -4.52): 38.90% and 50.17% and 61.68% | % IP accumulation (OX2R N324A; TAK-925 conc (log, M) -5.00): 44.83% and 48.29% and 62.09% | % IP accumulation (OX2R N324A; TAK-925 conc (log, M) -5.48): 54.68% and 49.83% and 60.54% | % IP accumulation (OX2R N324A; TAK-925 conc (log, M) -5.95): 62.62% and 51.37% and 66.38% | % IP accumulation (OX2R N324A; TAK-925 conc (log, M) -6.43): 60.89% and 49.04% and 58.43% | % IP accumulation (OX2R N324A; TAK-925 conc (log, M) -6.91): 55.51% and 43.02% and 53.52% | % IP accumulation (OX2R N324A; TAK-925 conc (log, M) -7.39): 29.79% and 34.77% and 41.19% | % IP accumulation (OX2R N324A; TAK-925 conc (log, M) -7.86): 20.98% and 26.21% and 25.22% | % IP accumulation (OX2R N324A; TAK-925 conc (log, M) -8.34): 10.23% and 11.60% and 16.93% | % IP accumulation (OX2R N324A; TAK-925 conc (log, M) -8.82): 0.00% and 5.30% | % IP accumulation (OX2R N324A; TAK-925 conc (log, M) -9.29): 0.24% and 0.00% and 4.28% | Emax (OX2R N324A; relative to OX2R WT/TAK-925): 55 | EC50 (OX2R Y354A; β-arrestin recruitment): 2400 nM | stimulation of Gi1 as reduction in cAMP levels after forskolin treatment (human OX2R): poor ability to stimulate Gi1; also recorded: minimal diminution of cAMP signal | % Forskolin stimulation (human OX2R; log [Agonist] -5.00): 72.69% and 86.21% and 88.94% | % Forskolin stimulation (human OX2R; log [Agonist] -5.52): 88.35% and 93.40% and 97.54% | % Forskolin stimulation (human OX2R; log [Agonist] -6.00): 94.60% and 96.68% and 103.97% | % Forskolin stimulation (human OX2R; log [Agonist] -6.52): 100.56% and 102.28% and 109.64% | % Forskolin stimulation (human OX2R; log [Agonist] -7.00): 100.76% and 107.19% and 105.95% | % Forskolin stimulation (human OX2R; log [Agonist] -7.52): 105.87% and 108.11% and 120.96% | % Forskolin stimulation (human OX2R; log [Agonist] -8.00): 107.95% and 108.44% and 107.03% | % Forskolin stimulation (human OX2R; log [Agonist] -8.52): 103.47% and 109.30% and 118.87% | EC50 (human OX2R wild type; IP accumulation): 7.5 nM | % IP accumulation (human OX2R wild type; TAK-925 conc (log, M) -10.25): 0.00% | Emax (human OX2R wild type): 100

orexin B
activation of the mutant receptor (OX2R N324A; Gq signaling, IP accumulation): fails to activate | % IP accumulation (OX2R N324A; OXB conc (log, M) -6.95, listed as OXB): 32.75% and 37.01% and 40.09% | % IP accumulation (OX2R N324A; OXB conc (log, M) -7.43, listed as OXB): 25.51% and 22.88% and 29.36% | % IP accumulation (OX2R N324A; OXB conc (log, M) -7.91, listed as OXB): 19.13% and 21.90% and 18.40% | % IP accumulation (OX2R N324A; OXB conc (log, M) -8.39, listed as OXB): 9.56% and 13.73% and 13.07% | % IP accumulation (OX2R N324A; OXB conc (log, M) -8.86, listed as OXB): 3.38% and 9.31% and 7.17% | % IP accumulation (OX2R N324A; OXB conc (log, M) -9.34, listed as OXB): 7.35% and 10.16% and 5.28% | % IP accumulation (OX2R N324A; OXB conc (log, M) -9.82, listed as OXB): 3.06% and 4.95% and 0.00% | % IP accumulation (OX2R N324A; [1]): 0.00% and 2.10% | beta-arrestin recruitment fold change (OX2R Y354A; OxB concentration -6.00 (log, M)): 9.833 fold and 7.839 fold and 7.764 fold and 5.538 fold | beta-arrestin recruitment fold change (OX2R Y354A; OxB concentration -6.52 (log, M)): 8.222 fold and 8.331 fold and 7.995 fold and 7.023 fold | beta-arrestin recruitment fold change (OX2R Y354A; OxB concentration -7.00 (log, M)): 7.061 fold and 6.164 fold and 4.831 fold and 5.998 fold | beta-arrestin recruitment fold change (OX2R Y354A; OxB concentration -7.52 (log, M)): 3.021 fold and 4.546 fold and 4.264 fold and 4.947 fold | beta-arrestin recruitment fold change (OX2R Y354A; OxB concentration -8.00 (log, M)): 1.570 fold and 2.249 fold and 1.723 fold and 2.390 fold | beta-arrestin recruitment fold change (OX2R Y354A; OxB concentration -8.52 (log, M)): 0.925 fold and 1.624 fold and 1.133 fold and 1.227 fold | beta-arrestin recruitment fold change (OX2R Y354A; OxB concentration -9.00 (log, M)): 0.997 fold and 0.922 fold and 1.331 fold and 1.082 fold | beta-arrestin recruitment fold change (OX2R Y354A; OxB concentration -10.00 (log, M)): 1.135 fold and 1.096 fold and 1.298 fold and 1.060 fold | stimulation of Gi1 as reduction in cAMP levels after forskolin treatment (human OX2R): poor ability to stimulate Gi1; also recorded: minimal diminution of cAMP signal | % Forskolin stimulation (human OX2R; log [Agonist] -5.00, listed as OXB): 62.35% and 75.49% and 85.20% | % Forskolin stimulation (human OX2R; log [Agonist] -5.52, listed as OXB): 65.51% and 74.64% and 79.34% | % Forskolin stimulation (human OX2R; log [Agonist] -6.00, listed as OXB): 67.69% and 72.61% and 81.55% | % Forskolin stimulation (human OX2R; log [Agonist] -6.52, listed as OXB): 83.40% and 83.94% and 91.79% | % Forskolin stimulation (human OX2R; log [Agonist] -7.00, listed as OXB): 104.15% and 101.20% and 102.30% | % Forskolin stimulation (human OX2R; log [Agonist] -7.52, listed as OXB): 105.47% and 101.46% and 103.50% | % Forskolin stimulation (human OX2R; log [Agonist] -8.00, listed as OXB): 105.90% and 100.54% and 102.29% | % Forskolin stimulation (human OX2R; log [Agonist] -8.52, listed as OXB): 101.42% and 105.57% and 98.48% | % IP accumulation (human OX2R wild type; OXB conc (log, M) -6.47712, listed as OXB): 93.64% and 92.82% and 91.17% and 95.11% and 103.46% | % IP accumulation (human OX2R wild type; [1]): 0.00% and 0.37% and 3.64% | Emax (human OX2R wild type): 100
